Test results as given in patent publication US20060004028A1, “Novel PARP inhibitor” (MOCHIDA PHARMACEUTICAL CO., LTD., priority 2002, published 2006).

Key:
PARP = target: T1, PARP (Homo sapiens, UniProt P09874); test: Measurement of PARP inhibitory activity (PARP Inhibition Assay kit, ADP-ribosylated histone); assay type: biochemical; settings: HSA PARP Enzyme, histone-coated plate, absorbance at 450 nm
T1 construct: purchased Travigen (Trevigen) 4669-96-K
Protocol: PARP activity is determined by measuring the amount of ADP-ribosylated histone protein applied onto an assay plate according to the manual of a measurement kit “PARP Inhibition Assay” (produced by Travigen, catalog number: 4669-96-K). Specifically, 25 μL/well of “2×PARP cocktail” (containing 800 μM of NAD, 50 μM of biotinylated NAD, and denatured DNA) was added to each well of assay plates (96-well multiplate) previously coated with histone protein. Further added was 12.5 μL/well of test compound diluted with “PARP Buffer” (50 mM Tris-hydrochloric acid buffer (pH 8.0) containing 25 mM of MgCl2) and 12.5 μL/well (final concentration: 0.3 unit/50 μL/well) of “HSA PARP Enzyme” diluted with “PARP Buffer” in that order. The mixture was allowed to react at room temperature for 30 minutes. Enzyme reaction of PARP was suspended by discarding the reaction solution and rinsing with a phosphate buffer. Then, 50 μL/well of “Strep-HRP” (streptavidin-labeled horseradish peroxidase) was added and allowed to react at 37° C. for 20 to 30 minutes to bind to biotin-labeled ADP-ribosylated histone. After the reaction solution was discarded, resultings were rinsed with a phosphate buffer, and 50 μL/well of calorimetric substrate TACS-Sapphire was added to the mixture to react at room temperature for 5 to 10 minutes in the dark.
The reaction was terminated by adding 50 μL/well of 0.2 N hydrochloric acid solution, and the absorbance at 450 nm was measured with a microplate reader.

U937 cells = test: Inhibitory effect against active oxygen-induced cell injury with U937 cells; assay type: cell-based; settings: propidium iodide fluorescence
Protocol: U937 cells were suspended in RPMI 1640 without serum, and were seeded at a concentration of 1×10^4 cells/50 μL/well in a solid assay plate (produced by Corning, black, tissue culture treated, Type: 3916). After adding 1 μL/well of test compound solution in DMSO, 50 μL/well of 20 mM hydrogen peroxide solution was added, followed by incubation at 37° C. for 3 hours in an atmosphere of 5% CO2. Then, 2 μL/well of 1.5 mM propidium iodide solution was added and incubation was further carried out at 37° C. for 1 hour. The fluorescence was measured with a fluorescence plate reader ARVO (excitation wavelength: 530 nm, fluorescence wavelength: 620 nm) to investigate hydrogen peroxide solution-induced necrosis inhibition.

[1] = Homo sapiens, U-937, hydrogen peroxide-induced necrosis

T1 sequence (P09874 whole entry): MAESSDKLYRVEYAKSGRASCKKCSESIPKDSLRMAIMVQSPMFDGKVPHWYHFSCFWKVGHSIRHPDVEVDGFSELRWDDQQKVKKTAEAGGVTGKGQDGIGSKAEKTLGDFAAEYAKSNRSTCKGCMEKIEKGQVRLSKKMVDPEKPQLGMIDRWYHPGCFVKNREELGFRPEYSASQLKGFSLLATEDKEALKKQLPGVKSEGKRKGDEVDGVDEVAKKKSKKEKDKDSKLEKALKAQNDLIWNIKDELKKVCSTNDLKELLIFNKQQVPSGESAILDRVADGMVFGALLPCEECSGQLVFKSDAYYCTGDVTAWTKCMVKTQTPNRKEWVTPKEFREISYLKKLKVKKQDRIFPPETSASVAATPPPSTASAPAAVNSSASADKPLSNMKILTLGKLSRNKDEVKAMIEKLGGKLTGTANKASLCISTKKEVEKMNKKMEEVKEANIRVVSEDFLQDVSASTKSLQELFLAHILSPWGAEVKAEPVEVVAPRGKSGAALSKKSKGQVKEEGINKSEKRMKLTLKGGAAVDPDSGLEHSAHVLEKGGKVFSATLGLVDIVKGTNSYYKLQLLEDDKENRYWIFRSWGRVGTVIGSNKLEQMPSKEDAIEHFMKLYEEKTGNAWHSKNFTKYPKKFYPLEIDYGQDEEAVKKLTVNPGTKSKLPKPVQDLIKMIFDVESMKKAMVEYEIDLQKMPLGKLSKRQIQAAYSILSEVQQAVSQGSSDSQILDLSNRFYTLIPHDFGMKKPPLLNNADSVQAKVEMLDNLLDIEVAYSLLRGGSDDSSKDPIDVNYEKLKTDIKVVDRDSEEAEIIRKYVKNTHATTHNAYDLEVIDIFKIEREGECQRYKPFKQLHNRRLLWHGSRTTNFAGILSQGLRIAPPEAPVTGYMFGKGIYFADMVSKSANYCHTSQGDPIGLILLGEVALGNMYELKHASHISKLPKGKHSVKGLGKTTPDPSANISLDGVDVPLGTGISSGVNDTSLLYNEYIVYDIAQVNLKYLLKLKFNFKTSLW

Molecule | IC50 (PARP) | melting point | IC50 (U937 cells; [1]) | IC50 (U937 cells; hydrogen peroxide-induced necrosis)
N[C@H]1CCN2c3c(cccc31)C(=O)N[C@@H]2c1ccc(OCCO)cc1 (racemic) [Example 93, Mixture of (3S,7S)-7-amino-3-(4-hydroxyethoxyphenyl)-6,7-dihydro-3H,5H-pyrido[3,2,1-ij]quinazoline-1(2H)-one and (3R,7R)-7-amino-3-(4-hydroxyethoxyphenyl)-6,7-dihydro-3H,5H-pyrido[3,2,1-ij]quinazoline-1(2H)-one] | 6 nM | 96.8 to 97.6 °C |  | 
COc1ccc([C@H]2NC(=O)c3cccc4c3N2CC[C@@H]4N)cc1F (racemic) [Example 99, Mixture of (3S,7S)-7-amino-3-(3-fluoro-4-methoxyphenyl)-6,7-dihydro-3H,5H-pyrido[3,2,1-ij]quinazoline-1(2H)-one and (3R,7R)-7-amino-3-(3-fluoro-4-methoxyphenyl)-6,7-dihydro-3H,5H-pyrido[3,2,1-ij]quinazoline-1(2H)-one] | 42 nM | 128.5 to 137.4 °C |  | 
N[C@H]1CCN2c3c(cccc31)C(=O)N[C@@H]2c1cccnc1 (racemic) [Example 100, Mixture of (3S,7S)-7-amino-3-(3-pyridyl)-6,7-dihydro-3H,5H-pyrido[3,2,1-ij]quinazoline-1(2H)-one and (3R,7R)-7-amino-3-(3-pyridyl)-6,7-dihydro-3H,5H-pyrido[3,2,1-ij]quinazoline-1(2H)-one] | 170 nM | 127 to 131.2 °C |  | 
CN(C)c1ccc([C@@H]2NC(=O)c3cccc4c3N2CC[C@@H]4N)cc1 (racemic) [Example 129, Mixture of (3R,7S)-7-amino-3-(4-N,N-dimethylaminophenyl)-6,7-dihydro-3H,5H-pyrido[3,2,1-ij]quinazoline-1(2H)-one and (3S,7R)-7-amino-3-(4-N,N-dimethylaminophenyl)-6,7-dihydro-3H,5H-pyrido[3,2,1-ij]quinazoline-1(2H)-one] | 49 nM | 237.8 to 239.7 °C |  | 
COc1ccc(C2NC(=O)c3cccc4c3N2CCC4N)cc1 (stereo not shown) [Example 4, 7-amino-3-(4-methoxyphenyl)-6,7-dihydro-3H,5H-pyrido[3,2,1-ij]quinazolinone-1(2H)-one] | 58 nM | 139.7 to 145.9 °C | 610 nM | 
O=C1CCN2c3c1cccc3C(=O)NC2c1ccc([N+](=O)[O-])cc1 (stereo not shown) [Example 17, 3-(4-nitrophenyl)-6,7-dihydro-3H,5H-pyrido[3,2,1-ij]quinazoline-1,7(2H)-dione] | 240 nM | 198.8 to 209.3 °C | 1200 nM | 
COc1ccc(C2NC(=O)c3cccc4c3N2CCC4=NO)cc1F (stereo not shown) [Example 66, 3-(3-fluoro-4-methoxyphenyl)-7-hydroxyimino-6,7-dihydro-3H,5H-pyrido[3,2,1-ij]quinazoline-1(2H)-one] |  | 260.3 to 261.6 °C | 1700 nM | 
Mixture of (3S,7S)-7-amino-3-(3,4-difluorophenyl)-6,7-dihydro-3H,5H-pyrido[3,2,1-ij]quinazoline-1(2H)-one and (3R,7R)-7-amino-3-(3,4-difluorophenyl)-6,7-dihydro-3H,5H-pyrido[3,2,1-ij]quinazoline-1(2H)-one [Example 122] | 120 nM |  |  | 
Mixture of (3S,7S)-7-amino-3-(4-bromophenyl)-6,7-dihydro-3H,5H-pyrido[3,2,1-ij]quinazoline-1(2H)-one and (3R,7R)-7-amino-3-(4-bromophenyl)-6,7-dihydro-3H,5H-pyrido[3,2,1-ij]quinazoline-1(2H)-one [Example 123] | 110 nM |  |  | 300 nM
